# According to patent US20180170941A1 (priority 2016, published 2018):
# Target: T1, α5β3γ2 GABAA receptors (Ltk cell membranes) (Homo sapiens, UniProt P18507+P31644)
# T1 construct: membranes
# Experiment: Binding activity of test compounds on GABAAR: inhibition of [3H]Ro15-1788 binding
# Conditions: not given
# Method: Tissue culture and Membrane Preparation: The binding was performed on Ltk cells stably expressing GABAA receptors: α1β1γ2, α2β3γ2, α3β3γ2 and α5β3γ2 (provided by Merck Co., NJ, USA). Cells were seeded in 100 mm culture plates in DMEM/F12 medium containing 10% serum and antibiotics in 5% CO2 and allowed to grow for 1-2 days. GABAAR expression was then induced by dexamethasone as follows: 0.5 μM for 1 day for α5 containing and 2μM for 3 days for α1, α2 and α3 containing GABAARs. After induction, cells were collected by scraping into Dulbecco's Phosphate buffered saline (DPBS, pH 7.4, Invitrogen, Carlsbad, Calif., USA) and centrifuged at 150×g for 10 min. The pellet was washed twice by re-suspension and centrifugation. The cell pellets from at least 5 different preps were combined, suspended in the binding assay buffer (50 mM KH2P4; 1 mM EDTA; 0.2 M KCl, pH 7.4) and membranes prepared by sonication (3-5 times, 30 sec) using Branson Sonifier 150 (G.Heinmann, Germany). Protein content was determined using BCA assay (Bio-Rad Labs, Reinach, Switzerland) with Bovine Serum Albumin (Sigma Aldrich, St. Louis, Mo., USA) as the standard. Aliquots were prepared and stored at −20° C. for further use in binding assays.
# Ligand Binding: Saturation binding curves were obtained by incubating membranes with increasing concentrations (0.01-8 nM) of [^3H]Ro15-1788 (Flumazepil, 75-85 Ci/mmol, PerkinElmer, MA, USA), with nonspecific binding measured in the presence of 10 μM diazepam.
# All binding assays were performed for 1 h at 4° C. in assay buffer. The total assay volume was 0.5 ml containing 0.2 mg/ml protein for α5 and 0.4 mg/ml for α1, α2, and α3 containing GABAAR membranes. Incubations were terminated by filtration through GF/B filters using a 24-Cell Harvestor (Brandel, Gaithersburg, Md., USA) followed by 3 washes with ice-cold assay buffer. Filters were transferred to scintillation vials, 5 ml scintillation liquid added, vortex-mixed and kept in dark. Next day, radioactivity was obtained using a scintillation counter (Beckman Coulter, Brea, Calif., USA). All assays were performed in triplicate.
# Data Analyses: Saturation and inhibition curves were obtained using GraphPad Prism software (GraphPad Software, Inc., CA, USA).
# T1 sequence (P31644 32-462): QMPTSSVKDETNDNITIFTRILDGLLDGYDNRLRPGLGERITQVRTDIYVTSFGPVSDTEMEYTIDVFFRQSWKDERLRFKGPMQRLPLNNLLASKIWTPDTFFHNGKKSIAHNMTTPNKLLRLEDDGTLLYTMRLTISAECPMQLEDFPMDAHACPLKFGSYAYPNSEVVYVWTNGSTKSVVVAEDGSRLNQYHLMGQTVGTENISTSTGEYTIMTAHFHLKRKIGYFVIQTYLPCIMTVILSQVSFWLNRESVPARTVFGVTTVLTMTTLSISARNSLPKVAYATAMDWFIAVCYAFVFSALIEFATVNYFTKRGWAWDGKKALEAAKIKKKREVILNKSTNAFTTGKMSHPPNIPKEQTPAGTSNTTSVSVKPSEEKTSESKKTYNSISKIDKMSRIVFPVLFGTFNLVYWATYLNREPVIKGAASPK
# T1 sequence (P28472 26-473 partner): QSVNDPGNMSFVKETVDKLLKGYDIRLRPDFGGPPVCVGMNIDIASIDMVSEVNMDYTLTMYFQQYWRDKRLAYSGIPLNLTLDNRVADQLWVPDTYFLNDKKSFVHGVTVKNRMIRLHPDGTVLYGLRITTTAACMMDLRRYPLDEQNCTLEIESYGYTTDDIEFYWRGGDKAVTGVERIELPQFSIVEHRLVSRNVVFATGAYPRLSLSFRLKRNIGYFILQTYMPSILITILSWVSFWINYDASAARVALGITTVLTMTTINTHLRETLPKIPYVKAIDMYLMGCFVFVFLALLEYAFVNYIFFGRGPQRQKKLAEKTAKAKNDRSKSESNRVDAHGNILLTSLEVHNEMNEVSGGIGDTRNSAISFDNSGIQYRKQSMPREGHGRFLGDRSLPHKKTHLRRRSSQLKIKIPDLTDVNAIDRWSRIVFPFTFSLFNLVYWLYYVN
# T1 sequence (P18507 40-475): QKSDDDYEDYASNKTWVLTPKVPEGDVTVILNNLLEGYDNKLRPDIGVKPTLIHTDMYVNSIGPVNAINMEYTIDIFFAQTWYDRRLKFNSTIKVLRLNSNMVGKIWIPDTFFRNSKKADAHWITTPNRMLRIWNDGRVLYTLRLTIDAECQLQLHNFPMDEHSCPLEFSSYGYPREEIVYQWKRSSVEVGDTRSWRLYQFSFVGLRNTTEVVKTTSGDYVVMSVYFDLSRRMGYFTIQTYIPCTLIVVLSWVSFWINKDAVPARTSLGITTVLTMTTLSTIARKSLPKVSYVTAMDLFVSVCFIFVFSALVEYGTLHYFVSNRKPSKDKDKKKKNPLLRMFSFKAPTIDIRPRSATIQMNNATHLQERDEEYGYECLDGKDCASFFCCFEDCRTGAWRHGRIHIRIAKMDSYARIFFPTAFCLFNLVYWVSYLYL
row,Compound,Ki [nM]
1,COc1ccc2c(c1)-c1nnc(COc3ccccc3C(F)(F)F)n1Cc1c(C#N)ncn1-2 [Compound 193],> 1000
2,COCc1nnc2n1Cc1c(-c3nc(C)no3)ncn1-c1cc(Cl)ccc1-2 [Compound 457],> 1000
3,COc1ccc2c(c1)-c1nnc(COc3ccccc3C(C)(C)C)n1Cc1c(C#N)ncn1-2 [Compound 192],> 1000

# Same assay, conditions: GABA α5 Binding Ki Values, inhibition of [3H]Ro15-1788 binding; reported as ranges
row,Compound,Ki [nM]
1,COCc1nnc2n1Cc1c(C#CC(=O)c3ccccc3)ncn1-c1ccc(Cl)cc1-2 [Compound 455],< 100
2,COc1ccc2c(c1)-n1nncc1Cc1c(C#CCc3ccccc3OC(F)(F)F)ncn1-2 [Compound 420],< 100
3,COCc1nnc2n1Cc1c(C3=N[C@H](CC(C)C)CO3)ncn1-c1ccc(Cl)cc1-2 [Compound 267],100 to 1000
4,COCc1nnc2n1Cc1c(Br)ncn1-c1ccc(Cl)cc1-2 [Compound 217],< 100
5,CCC#Cc1ncn2c1Cn1c(COC)nnc1-c1cc(Cl)ccc1-2 [Compound 345],< 100
6,CCOCc1nnc2n1Cc1c(Br)ncn1-c1ccc(Cl)cc1-2 [Compound 216],< 100
7,Cc1noc(-c2ncn3c2Cc2c(C)nnn2-c2cc(F)ccc2-3)n1 [Compound 110],100 to 1000
8,COc1ccc2c(c1)-n1nnc(Cc3cccnc3)c1Cc1c(C#N)ncn1-2 [Compound 210],< 100
9,CCOC(=O)c1ncn2c1Cc1c(COc3ccccc3)nnn1-c1cc(F)ccc1-2 [Compound 107],< 100
10,COCc1nnc2n1Cc1c(C3=N[C@@H](c4cccc(C(F)(F)F)c4)CO3)ncn1-c1ccc(Cl)cc1-2 [Compound 336],100 to 1000
11,Clc1ccc2c(c1)-n1nncc1Cc1c(C#Cc3ccccn3)ncn1-2 [Compound 401],< 100
12,COc1ccc2c(c1)-c1nnc(COc3ccccc3)n1Cc1c(C(F)F)ncn1-2 [Compound 124],100 to 1000
13,N#Cc1ncn2c1Cn1c(COc3ccccc3)nnc1-c1cc(F)ccc1-2 [Compound 157],< 100
14,Cc1ccccc1C#Cc1ncn2c1Cc1cnnn1-c1cc(Cl)ccc1-2 [Compound 396],< 100
15,CCOCc1nnc2n1Cc1c(C3=N[C@@H](c4ccccc4)CO3)ncn1-c1ccc(Cl)cc1-2 [Compound 275],< 100
16,COc1ccc2c(c1)-c1nnc(COC(C)(C)C)n1Cc1c(-c3noc(C(C)C)n3)ncn1-2 [Compound 201],100 to 1000
17,COc1ccc2c(c1)-n1nncc1Cc1c(C#CCc3cccc(Cl)c3)ncn1-2 [Compound 417],< 100
18,COc1ccc2c(c1)-n1nncc1Cc1c(C#CC(C)C)ncn1-2 [Compound 424],< 100
19,COc1ccc2c(c1)-c1nnc(COc3ccc(F)cc3)n1Cc1c(C#N)ncn1-2 [Compound 191],100 to 1000
20,Cc1nnn2c1Cc1c(-c3ncon3)ncn1-c1ccc(F)cc1-2 [Compound 151],< 100
21,N#Cc1ncn2c1Cc1c(COc3cccc(F)c3)nnn1-c1cc(Cl)ccc1-2 [Compound 227],< 100
22,CC(C)c1noc(-c2ncn3c2Cn2c(COc4ccccc4)nnc2-c2cc(F)ccc2-3)n1 [Compound 141],100 to 1000

row,Compound,Ki [nM]
1,CC(C)OCc1nnc2n1Cc1c(C3=N[C@H](C)CO3)ncn1-c1ccc(Cl)cc1-2 [Compound 286],100 to 1000
2,COc1ccc2c(c1)-n1nncc1Cc1c(C3=N[C@@H](c4ccc(Cl)cc4)CO3)ncn1-2 [Compound 368],< 100
3,COCc1nnc2n1Cc1c(C3=NCCO3)ncn1-c1ccc(OC(F)(F)F)cc1-2 [Compound 460],100 to 1000
4,Cc1cnc(-c2ncn3c2Cc2c(C)nnn2-c2ccccc2-3)nc1 [Compound 146],100 to 1000
5,Cc1nnn2c1Cc1c(C(=O)OC(C)C)ncn1-c1ccccc1-2 [Compound 153],< 100
6,CCOC(=O)c1ncn2c1Cc1c(C)nnn1-c1cc(C)ccc1-2 [Compound 102],< 100
7,CCOC(=O)c1ncn2c1Cc1c(Cc3cccc(Cl)c3)nnn1-c1cc(OC)ccc1-2 [Compound 52],< 100
8,Cc1nnn2c1Cc1c(C#N)ncn1-c1ccc(F)cc1-2 [Compound 116],> 1000
9,CCOC(=O)c1ncn2c1Cc1c(C)nnn1-c1cc(OC)ccc1-2 [Compound 1],< 100
10,CC1(C)COC(c2ncn3c2Cc2cnnn2-c2cc(Cl)ccc2-3)=N1 [Compound 364],< 100
11,COCc1nnn2c1Cc1c(C3=N[C@@H](Cc4ccccc4)CO3)ncn1-c1ccc(Cl)cc1-2 [Compound 299],100 to 1000
12,Cc1nnn2c1Cc1c(C(=O)OCC(F)(F)F)ncn1-c1ccc(F)cc1-2 [Compound 114],< 100
13,CCOC(=O)c1ncn2c1Cc1c(C#Cc3ccccc3)nnn1-c1cc(OC)ccc1-2 [Compound 318],100 to 1000
14,Cc1ccccc1C#Cc1ncn2c1Cn1c(COC(C)C)nnc1-c1cc(Cl)ccc1-2 [Compound 310],< 100
15,CCOC(=O)c1ncn2c1Cc1c(Cc3ccccc3)nnn1-c1ccccc1-2 [Compound 5],< 100
16,CC(C)OCc1nnc2n1Cc1c(C3=N[C@@H](c4ccccc4F)CO3)ncn1-c1ccc(Cl)cc1-2 [Compound 321],100 to 1000
17,CCOC(=O)c1ncn2c1Cc1c(Cc3cccc(C#N)c3)nnn1-c1cc(OC)ccc1-2 [Compound 53],< 100
18,CCOC(=O)c1ncn2c1Cc1c(Cc3ccccc3)nnn1-c1cc(OC)ccc1-2 [Compound 4],< 100
19,COCc1nnc2n1Cc1c(-c3nc(-c4ccccc4)co3)ncn1-c1ccc(Cl)cc1-2 [Compound 245],< 100
20,Cc1nc(-c2ncn3c2Cn2c(COc4ccccc4)nnc2-c2cc(F)ccc2-3)no1 [Compound 148],< 100
21,COc1ccc2c(c1)-c1nnc(COc3ccccc3Cl)n1Cc1c(-c3noc(C(C)C)n3)ncn1-2 [Compound 175],< 100
22,C=Cc1ncn2c1Cc1c(Cc3ccc(C)cc3)nnn1-c1cc(OC)ccc1-2 [Compound 221],> 1000

row,Compound,Ki [nM]
1,COc1ccc2c(c1)-n1nncc1Cc1c(C3=N[C@@H](c4ccc(C(F)(F)F)cc4)CO3)ncn1-2 [Compound 372],< 100
2,Clc1ccc2c(c1)-c1nnc(COc3ccccc3)n1Cc1c(-c3ncco3)ncn1-2 [Compound 349],< 100
3,C#Cc1ncn2c1Cn1c(COCc3ccccc3)nnc1-c1cc(Cl)ccc1-2 [Compound 351],< 100
4,COCc1nnc2n1Cc1c(-c3nc(C)no3)ncn1-c1ccc(-c3cccnc3)cc1-2 [Compound 469],100 to 1000
5,COc1ccc2c(c1)-n1nnc(COc3ccccc3F)c1Cc1c(-c3noc(C)n3)ncn1-2 [Compound 181],< 100
6,COCc1nnc2n1Cc1c(C#Cc3ccccc3C)ncn1-c1ccc(Cl)cc1-2 [Compound 293],< 100
7,COc1ccc2c(c1)-n1nncc1Cc1c(-c3nc(C(C)C)no3)ncn1-2 [Compound 257],< 100
8,COCc1nnc2n1Cc1c(-c3nc(C)no3)ncn1-c1ccc(Br)cc1-2 [Compound 461],< 100
9,COc1ccc2c(c1)-c1nnc(COc3cccnc3)n1Cc1c(Br)ncn1-2 [Compound 235],< 100
10,CCOCc1nnc2n1Cc1c(-c3nc(C)no3)ncn1-c1ccc(Cl)cc1-2 [Compound 255],< 100
11,COc1ccc2c(c1)-c1nnc(COCc3cccnc3)n1Cc1c(-c3noc(C(C)C)n3)ncn1-2 [Compound 203],< 100
12,COc1ccc2c(c1)-n1nncc1Cc1c(C3=N[C@@H](C)CO3)ncn1-2 [Compound 292],100 to 1000
13,Fc1ccc2c(c1)-c1nnc(COc3ccccc3)n1Cc1c(-c3noc(C(F)(F)F)n3)ncn1-2 [Compound 159],< 100
14,COc1ccc2c(c1)-n1nnc(COc3ccccc3F)c1Cc1c(C#N)ncn1-2 [Compound 223],< 100
15,"C#Cc1ncn2c1Cn1c(COC)nnc1-c1cc(OC)ccc1-2 [Compound 328, 5-ethynyl-15-methoxy-9-(methoxymethyl)-2,4,8,10,11-pentaazatetracyclo[11.4.0.0^2,^6.0^8,^12]heptadeca-1(17),3,5,9,11,13,15-heptaene]",< 100
16,COc1ccc2c(c1)-n1nncc1Cc1c(C3=N[C@@H](c4ccc(Cl)cc4Cl)CO3)ncn1-2 [Compound 374],100 to 1000
17,COCc1nnc2n1Cc1c(-c3ncco3)ncn1-c1ccc(Cl)cc1-2 [Compound 249],< 100
18,CCOC(=O)c1ncn2c1Cc1c(CN3CCOCC3)nnn1-c1cc(OC)ccc1-2 [Compound 49],< 100
19,COc1ccc2c(c1)-n1nncc1Cc1c(-c3nc(C(C)C)co3)ncn1-2 [Compound 394],< 100
20,COCc1nnc2n1Cc1c(C3=NC(C)(C)CO3)ncn1-c1ccc(Cl)cc1-2 [Compound 297],100 to 1000

# Same assay, conditions: inhibition of [3H]Ro15-1788 binding; reported as ranges
row,Compound,Ki [nM]
1,COCc1nnc2n1Cc1c(COCc3ccccc3F)ncn1-c1ccc(Cl)cc1-2 [Compound 431],> 1000
